Data from patent US20240122212A1 (SUNTORY HOLDINGS LIMITED, priority 2020, published 2024).

Experiment: Degree of sweetness relative to sucrose
Excerpt: The “sweetness intensity” means an intensity of sweetness of a substance. […] A numerical value obtained by multiplying the degree of sweetness by a concentration Brix value of glucose is the sweetness intensity of glucose in terms of sucrose. Thus, when a concentration of glucose in terms of sucrose is Brix 1.5, the sweetness intensity of glucose is 0.65×1.5=0.975. The sweetness intensity of a sweetener in terms of sucrose can be calculated from a degree of sweetness shown in the following table or a value of a known degree of sweetness.
For example, when the sweetness intensity of sucrose per unit concentration Brix 1 is defined as a degree of sweetness of 1, a degree of sweetness of rebaudioside D is about 200 to 250 (median value 225), a degree of sweetness of rebaudioside M is about 200 to 260 (median value 230), a degree of sweetness of rebaudioside B is about 325, a degree of sweetness of rebaudioside A is about 200 to 300 (median value 250), a degree of sweetness of rebaudioside N is about 200 to 250 (median value 225), a degree of sweetness of rebaudioside O is about 200 to 250 (median value 225), a degree of sweetness of rebaudioside E is about 70 to 80 (median value 75), a degree of sweetness of a Luo han guo extract (containing 40% of Mog V) is about 110 to 150 (median value 130), a degree of sweetness of mogroside V is about 240 to 300 (median value 270), and a degree of sweetness of thaumatin is about 2,000, and a degree of sweetness of brazzein is about 500 to 2,000 (median value 1,250). The numerical value obtained by multiplying these degrees of sweetness by a concentration (w/v % (considered to be the same as w/w % in the case of a beverage)) of the high-intensity sweetener in a fruit juice beverage is a sweetness intensity of the high-intensity sweetener. The relative ratio in degrees of sweetness of various sweeteners to the degree of sweetness of 1 of sucrose can be determined from a known sugar sweetness conversion table, and the like. In the present description, when a degree of sweetness is shown in a numerical value range, the median value may be used. However, a sweetener having different values in a degree of sweetness by literatures, a relative ratio in a degree of sweetness to the degree of sweetness of 1 of sucrose can be defined by a sensory test. Examples of such a sensory test include a method in which samples were prepared by adding sucrose having a sweetness intensity of Brix 3.0 to 5.0 in 0.5 increments to pure water, and of which a sucrose-added sample having a sweetness intensity equal to an aqueous solution of a sweetener in a predetermined concentration is selected.
Additionally, for a sweetener with a variable degree of sweetness as a sweetness intensity increases, degrees of sweetness in different concentrations are actually measured and plotted whereby a degree of sweetness in a predetermined concentration may be calculated from the obtained approximate curve.

O=C[C@@H](O)[C@H](O)[C@H](O)CO [D-Arabinose]
degree of sweetness, times as much as that of sucrose (according to the confirmation by the present inventors): about 0.6 times | degree of sweetness, times as much as that of sucrose (value used to design the sample solutions): 0.6 times | sweetness intensity, times as much as that of sucrose (value used to design the sample solutions of Example 5): 0.6 times
